Laboratory results from PMC5980259, “GI‐530159, a novel, selective, mechanosensitive two‐pore‐domain potassium (K2P) channel opener, reduces rat dorsal root ganglion neuron excitability” (British Journal of Pharmacology, 2017).

Tests used:
[1] = tested on: Na current in DRG neurons; assay: Voltage-clamp recordings from DRG neurons, Na current; type: cell-based, rat
Procedure: Acutely dissociated rat DRG cells were obtained according to a previously described protocol (Passmore, 2005). All animal care and experimental procedures complied with guidelines and were approved by the Pfizer Neusentis Institutional Animal Use and Care Committee. Animal studies are reported in compliance with the ARRIVE guidelines (Kilkenny et al., 2010; McGrath and Lilley, 2015).Cells were plated on coated coverslips (poly‐D‐lysine/laminin, BD Biosciences, San Jose, CA, USA) prior to patching on the same day. Cells were perfused with an extracellular solution containing (in mM): 135 NaCl, 4.7 KCl, 1 CaCl2, 1 MgCl2, 10 HEPES and 10 glucose, pH 7.4, with NaOH (310 mOsmol·L^−1). Pipette solution contained (in mM): 130 KCl, 1 MgCl2, 5 MgATP, 10 HEPES and 5 EGTA, pH adjusted to 7.3 with KOH (290 mOsmol·L^−1). For whole‐cell recordings, currents were filtered at 2 kHz and sampled at 5 kHz. Series resistance was compensated for by up to 80%. For current‐clamp recordings, action potential firing and resting membrane potential (RMP) were recorded from small cells ([…]). GI‐530159 was dissolved in 0.3% DMSO as 10 mM stock and applied in the vicinity of cells using a gravity fed perfusion system (MSC‐200, Bio‐Logic SAS, Claix, France).

TASK3 (K2P9.1) = TASK3 (K2P9.1) (Homo sapiens, UniProt Q9NPC2); parameters: method as in Cao et al., 2010; conditions: ref Cao et al., 2010; cited from earlier work
Sequence of TASK3 (K2P9.1) (Q9NPC2 whole entry, species assumed): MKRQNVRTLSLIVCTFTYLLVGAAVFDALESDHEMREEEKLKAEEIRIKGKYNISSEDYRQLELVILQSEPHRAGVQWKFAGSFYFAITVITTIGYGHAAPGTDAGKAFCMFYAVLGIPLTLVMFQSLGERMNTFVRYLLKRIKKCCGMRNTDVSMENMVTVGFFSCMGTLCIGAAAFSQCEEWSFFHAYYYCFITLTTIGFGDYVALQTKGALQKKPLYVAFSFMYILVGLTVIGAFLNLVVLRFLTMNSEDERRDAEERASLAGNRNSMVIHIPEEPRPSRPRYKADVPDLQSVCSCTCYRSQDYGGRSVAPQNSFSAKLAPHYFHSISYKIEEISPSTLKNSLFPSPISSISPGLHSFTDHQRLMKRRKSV

NaV1.7 = NaV1.7 (Homo sapiens, UniProt Q15858); assay: BL-1249 selectivity (manual patch-clamp and flux assay platforms), NaV1.7; type: cell-based; conditions: 10 μM
Sequence of NaV1.7 (Q15858 whole entry): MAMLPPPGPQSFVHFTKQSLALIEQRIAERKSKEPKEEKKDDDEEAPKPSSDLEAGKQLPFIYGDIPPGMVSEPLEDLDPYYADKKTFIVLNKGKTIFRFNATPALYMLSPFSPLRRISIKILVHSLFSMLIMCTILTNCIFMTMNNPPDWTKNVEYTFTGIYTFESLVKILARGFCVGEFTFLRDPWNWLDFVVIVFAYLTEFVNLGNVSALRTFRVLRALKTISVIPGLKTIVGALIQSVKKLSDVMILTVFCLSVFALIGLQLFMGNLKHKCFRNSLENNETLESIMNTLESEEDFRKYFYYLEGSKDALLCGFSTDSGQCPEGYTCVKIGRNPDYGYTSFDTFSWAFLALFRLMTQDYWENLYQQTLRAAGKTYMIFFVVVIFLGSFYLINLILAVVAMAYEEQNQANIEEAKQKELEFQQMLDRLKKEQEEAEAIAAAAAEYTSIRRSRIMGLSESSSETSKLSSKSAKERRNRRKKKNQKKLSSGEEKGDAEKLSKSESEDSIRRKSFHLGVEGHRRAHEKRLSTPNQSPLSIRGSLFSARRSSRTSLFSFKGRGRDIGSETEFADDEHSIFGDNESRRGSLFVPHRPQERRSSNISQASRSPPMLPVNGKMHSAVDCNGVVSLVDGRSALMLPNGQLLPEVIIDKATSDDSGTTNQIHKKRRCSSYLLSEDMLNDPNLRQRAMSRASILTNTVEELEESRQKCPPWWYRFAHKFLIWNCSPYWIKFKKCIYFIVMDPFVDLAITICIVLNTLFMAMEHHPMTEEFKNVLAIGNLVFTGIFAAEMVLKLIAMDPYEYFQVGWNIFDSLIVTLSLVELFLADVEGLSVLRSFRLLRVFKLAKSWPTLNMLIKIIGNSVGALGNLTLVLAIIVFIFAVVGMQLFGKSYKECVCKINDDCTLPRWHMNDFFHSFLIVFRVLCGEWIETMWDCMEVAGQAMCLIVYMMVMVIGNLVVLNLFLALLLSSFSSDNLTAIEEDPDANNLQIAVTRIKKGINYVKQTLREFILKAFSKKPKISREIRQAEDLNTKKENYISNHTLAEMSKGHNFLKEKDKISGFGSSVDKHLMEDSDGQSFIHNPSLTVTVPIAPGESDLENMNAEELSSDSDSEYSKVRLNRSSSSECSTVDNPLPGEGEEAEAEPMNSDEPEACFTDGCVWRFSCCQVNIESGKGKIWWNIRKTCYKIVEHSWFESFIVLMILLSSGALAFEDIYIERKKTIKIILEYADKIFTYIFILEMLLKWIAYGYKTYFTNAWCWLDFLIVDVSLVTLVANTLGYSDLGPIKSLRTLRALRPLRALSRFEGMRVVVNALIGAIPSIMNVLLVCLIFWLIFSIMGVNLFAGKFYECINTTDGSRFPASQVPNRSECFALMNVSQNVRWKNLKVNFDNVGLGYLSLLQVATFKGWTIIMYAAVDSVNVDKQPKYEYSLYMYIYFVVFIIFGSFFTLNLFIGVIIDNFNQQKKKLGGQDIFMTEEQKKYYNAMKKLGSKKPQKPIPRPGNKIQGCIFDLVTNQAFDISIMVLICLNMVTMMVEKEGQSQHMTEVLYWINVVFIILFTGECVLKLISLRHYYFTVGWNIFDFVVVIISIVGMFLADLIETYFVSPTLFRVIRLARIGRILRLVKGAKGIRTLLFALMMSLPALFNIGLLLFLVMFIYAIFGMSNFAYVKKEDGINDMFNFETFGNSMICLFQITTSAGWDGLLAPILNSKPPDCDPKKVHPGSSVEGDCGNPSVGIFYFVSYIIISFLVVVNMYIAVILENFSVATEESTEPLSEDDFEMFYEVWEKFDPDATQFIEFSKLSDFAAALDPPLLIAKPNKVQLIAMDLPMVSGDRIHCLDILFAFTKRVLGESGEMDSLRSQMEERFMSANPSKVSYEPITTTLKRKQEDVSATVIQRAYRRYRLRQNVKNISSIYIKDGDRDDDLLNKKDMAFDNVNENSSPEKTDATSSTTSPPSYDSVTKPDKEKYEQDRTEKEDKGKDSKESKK

hTRAAK = target: T1, hTRAAK (Homo sapiens, UniProt Q9NYG8); assay: Whole-cell patch clamp, transiently transfected tsA-201 cells, TRAAK; type: cell-based; conditions: Supporting Information Figure S2
T1 construct: expressed in transfected cells; host or cells: tsA-201, transient, pcDNA3.1 vector
T1 sequence (Q9NYG8 1-393): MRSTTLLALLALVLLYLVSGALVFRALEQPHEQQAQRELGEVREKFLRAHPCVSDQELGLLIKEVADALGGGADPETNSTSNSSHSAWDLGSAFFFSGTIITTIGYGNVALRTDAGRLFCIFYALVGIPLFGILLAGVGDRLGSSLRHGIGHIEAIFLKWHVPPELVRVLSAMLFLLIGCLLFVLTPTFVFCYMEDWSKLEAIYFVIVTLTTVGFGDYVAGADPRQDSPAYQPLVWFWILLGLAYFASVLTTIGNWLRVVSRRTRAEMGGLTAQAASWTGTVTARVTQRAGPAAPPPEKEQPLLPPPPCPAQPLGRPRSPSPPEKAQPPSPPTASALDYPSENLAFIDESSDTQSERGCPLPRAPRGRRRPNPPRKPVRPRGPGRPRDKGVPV
Procedure: Recordings of hTREK1, hTREK1∆N, hTREK2, hTRAAK and […] currents from transiently transfected tsA‐201 cells were performed using methods as described in Veale and Mathie (2016). Briefly, the pcDNA3.1 vector was cloned with the gene of interest, and these vectors and a similar vector containing GFP were incorporated into the tsA201 cells (0.5 μg per well) using the calcium phosphate method. The cells were incubated for 6–12 h at 37°C in […] and 5% carbon dioxide. Cells were then washed using a PBS solution and used for experiments after 24 h.
Currents were recorded using whole‐cell patch‐clamp using an Axopatch 1D amplifier. Cells were placed in a recording chamber filled with an external medium composed of 145 mM, NaCl, 2.5 mM KCl, 3 mM MgCl2, 1 mM CaCl2 and 10 mM HEPES (pH to 7.4, using NaOH). The internal medium used in the glass pipette comprised 150 mM KCl, 3 mM MgCl2, 5 mM (or 0.1 mM) EGTA and 10 mM HEPES (pH to 7.4, using KOH). GI‐530159 was applied by bath perfusion. Currents were recorded and analysed using pCLAMP 10.2 software Microsoft Excel. The voltage protocol used for recording current through K2P channels was as previously described (Veale and Mathie, 2016). For analysis, we measured the current difference between the −80 and −40 mV steps.

hTREK1 = target: T2, hTREK1 (Homo sapiens, UniProt O95069); assay: Manual whole-cell patch clamp, HEK293 cells stably expressing TREK1; type: cell-based; parameters: expressed in transfected cells; conditions: 100 μM; n = 7
T2 sequence (O95069 1-426): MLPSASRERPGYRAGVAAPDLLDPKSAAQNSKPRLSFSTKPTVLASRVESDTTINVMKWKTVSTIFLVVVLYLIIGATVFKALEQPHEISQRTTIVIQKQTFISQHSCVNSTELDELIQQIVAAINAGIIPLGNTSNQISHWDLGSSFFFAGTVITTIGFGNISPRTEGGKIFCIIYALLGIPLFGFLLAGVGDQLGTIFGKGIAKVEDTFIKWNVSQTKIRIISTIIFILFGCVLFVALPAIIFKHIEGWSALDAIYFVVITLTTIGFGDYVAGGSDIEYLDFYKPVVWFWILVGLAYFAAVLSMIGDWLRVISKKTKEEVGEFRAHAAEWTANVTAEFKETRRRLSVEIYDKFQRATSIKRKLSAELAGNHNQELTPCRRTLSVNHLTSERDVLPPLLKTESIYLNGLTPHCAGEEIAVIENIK
Procedure: Electrophysiological studies were performed on CHO or HEK293 cells, stably expressing human recombinant TREK1; tsA‐201 cells transiently transfected with human recombinant K2P channels and acutely dissociated rat DRG cells, all at room temperature (22–24°C).
Studies were performed using a conventional patch clamp and Multiclamp 700B and pCLAMP software (Molecular Devices, Sunnyvale, CA, USA). For conventional manual patch clamp, glass coverslips containing HEK293 cells were perfused with an extracellular solution (ECS) containing (in mM): 135 NaCl, 4.7 KCl, 1 CaCl2, 1 MgCl2, 10 HEPES and 10 glucose, pH 7.4, with NaOH (310 mOsmol·L^−1). The patch pipette was filled with (in mM): 130 KCl, 1 MgCl2, 5 MgATP, 10 HEPES and 10 BAPTA, pH adjusted to 7.3 with KOH (290 mOsmol·L^−1).

BK (KCa1.1) = BK (KCa1.1) (Homo sapiens, UniProt Q12791); assay: BL-1249 selectivity (manual patch-clamp and flux assay platforms), BK; type: cell-based; conditions: 10 μM
Sequence of BK (KCa1.1) (Q12791 whole entry, species assumed): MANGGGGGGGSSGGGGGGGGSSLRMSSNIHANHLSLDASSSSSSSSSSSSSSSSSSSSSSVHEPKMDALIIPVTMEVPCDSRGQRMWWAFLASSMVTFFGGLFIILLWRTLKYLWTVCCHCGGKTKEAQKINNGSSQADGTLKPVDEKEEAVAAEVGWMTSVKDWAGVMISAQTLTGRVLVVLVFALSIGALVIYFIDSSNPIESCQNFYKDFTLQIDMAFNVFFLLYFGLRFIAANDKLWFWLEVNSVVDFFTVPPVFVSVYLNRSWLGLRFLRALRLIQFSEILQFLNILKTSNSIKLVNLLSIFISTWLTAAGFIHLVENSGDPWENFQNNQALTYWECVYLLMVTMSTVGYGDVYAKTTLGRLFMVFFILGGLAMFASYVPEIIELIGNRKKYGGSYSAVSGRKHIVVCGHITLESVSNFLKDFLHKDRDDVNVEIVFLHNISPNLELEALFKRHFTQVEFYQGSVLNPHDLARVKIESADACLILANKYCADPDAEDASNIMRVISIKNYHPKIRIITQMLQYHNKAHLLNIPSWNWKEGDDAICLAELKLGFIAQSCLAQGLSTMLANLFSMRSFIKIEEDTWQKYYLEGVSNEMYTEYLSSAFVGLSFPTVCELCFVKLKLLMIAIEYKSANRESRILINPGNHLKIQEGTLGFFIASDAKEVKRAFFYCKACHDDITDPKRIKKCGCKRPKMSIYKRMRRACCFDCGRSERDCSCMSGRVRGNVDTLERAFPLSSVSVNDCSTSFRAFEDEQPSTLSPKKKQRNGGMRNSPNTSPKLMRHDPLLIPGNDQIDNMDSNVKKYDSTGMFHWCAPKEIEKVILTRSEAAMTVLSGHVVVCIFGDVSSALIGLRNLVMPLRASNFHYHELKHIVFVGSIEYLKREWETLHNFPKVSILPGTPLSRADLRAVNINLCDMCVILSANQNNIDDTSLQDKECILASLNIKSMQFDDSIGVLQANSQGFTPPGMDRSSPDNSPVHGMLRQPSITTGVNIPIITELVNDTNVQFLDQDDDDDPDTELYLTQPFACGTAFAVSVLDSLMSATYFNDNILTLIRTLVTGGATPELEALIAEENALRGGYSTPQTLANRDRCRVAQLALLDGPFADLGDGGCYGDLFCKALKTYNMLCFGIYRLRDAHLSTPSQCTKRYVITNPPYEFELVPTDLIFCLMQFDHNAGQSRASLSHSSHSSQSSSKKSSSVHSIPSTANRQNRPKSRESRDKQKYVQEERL

Kv7.2 (KCNQ2) = Kv7.2 (KCNQ2) (Homo sapiens, UniProt O43526); assay: BL-1249 selectivity (manual patch-clamp and flux assay platforms), Kv7.2; type: cell-based; conditions: 10 μM
Kv7.3(KCNQ3) = Kv7.3(KCNQ3) (Homo sapiens, UniProt O43525); assay: BL-1249 selectivity (manual patch-clamp and flux assay platforms), Kv7.3; type: cell-based; conditions: 10 μM
TREK1 = tested on: TREK1; parameters: method as in Cao et al., 2010; conditions: ref Cao et al., 2010; read-out: EC50 in electrophysiological experiments; cited from earlier work

effect on NaV1.7 (NaV1.7): significant inhibition
effect on TRAAK channels (hTRAAK): clear enhancement
maximal enhanced current (hTREK1): 7.2 ± 1.3 nA
effect on BK (KCa1.1) (BK (KCa1.1)): significant inhibition
effect on Kv7.2 (KCNQ2) (Kv7.2 (KCNQ2)): significant inhibition
effect on Kv7.3 (KCNQ3) (Kv7.3(KCNQ3)): significant inhibition
SMILES: c1ccc(-c2nnn[nH]2)c(Nc2cccc3c2CCCC3)c1 [BL‐1249, (5,6,7,8‐tetrahydro‐naphthalen‐1‐yl)‐[2‐(1H‐tetrazol‐5‐yl)‐phenyl]‐amine]
block of Na current in DRG neurons [1]: clear block
effect on TASK3 (K2P9.1) channels (TASK3 (K2P9.1)): strong activator
EC50 (TREK1): ~1 µM
